The series is described as follows: gradient 5% acetonitrile 3 min, to 50% in 2 min, to 85% in 15 min, held 3 min, 100 µL/min. Conditions: column: Zorbax Extend-C18 2.1 x 50 mm; eluents: water / acetonitrile, 0.1% formic acid. In a few lines:
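Data were gathered over 3 months by HPLC coupled to a quadrupole time-of-flight mass spectrometer, operated in positive and negative ionization mode. Mixtures of ~100 pure standards ran on a Zorbax Extend-C18 column (2.1 × 50 mm, 1.8 μm) at 100 μL/min, with water and acetonitrile each containing 0.1% formic acid and dead and dwell volumes of 40 μL and 900 μL. Retention time was read from adduct peaks picked by computer and checked manually.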
`COc1cccc(N2CCN(c3ccnc(SCC(=O)Nc4c(C)cc(C)cc4C)n3)CC2)c1` had an RP-LC retention time of 861 s.
`O=C(NCC1CCN(Cc2ccco2)CC1)C(=O)Nc1ccc(F)c(Cl)c1` displayed an RP-LC retention time of 584 s.
The value for `Cc1ccc(-c2nc(C)c(C(=O)N3CCCC3)s2)cc1` was 906 s; that for `COc1ccc(-c2noc(CN3CCN(c4ccc(OC)cc4)CC3)n2)cc1` was 809 s; that for `CCn1ccc(NC(=O)Nc2cc(C)cc(C)c2)n1` was 853 s.
In turn, `COc1ccc(N2CCN(c3cc(SCC(=O)Nc4cc(F)ccc4F)ncn3)CC2)cc1` gave an RP-LC retention time of 1130 s.
The value for `Cc1cnc(C2CN(Cc3ccccn3)C2)n1CC1CC1` was 538 s; that for `CS(=O)(=O)Nc1ccc([N+](=O)[O-])cc1Oc1ccccc1` was 967 s; that for `CCOC(=O)c1c(C)oc2nc(C)nc(Nc3ccc(OCC)cc3)c12` was 1360 s.
The value for `O=c1[nH]ccc2c(O)cccc12` was 584 s.
`O=C(Cc1ccccc1Br)N1CCc2cc(-c3ccno3)ccc21` showed an RP-LC retention time of 1030 s.
`OC[C@@H]1CN(Cc2ccco2)C[C@H]1c1nc(-c2cccnc2)no1` showed an RP-LC retention time of 557 s.
The value for `COc1ccc(Cc2nnc3sc(-c4ccccc4OC)nn23)cc1` was 976 s; that for `CNC(=O)C1CCCN(c2nc3ncn(CC(=O)Nc4ccccc4Cl)c(=O)c3s2)C1` (centres undefined) was 654 s; that for `O=C(CCC1CCCN(C(=O)Nc2ccccc2)C1)NCc1ccc(F)cc1F` (centres undefined) was 816 s.
The result for `CC(C)n1cnc2ccc(-c3noc(-c4cccs4)n3)cc21` reads 746 s; that for `COc1cccc(N2CCN(c3ccnc(SCC(=O)Nc4ccc(OC)c(Cl)c4)n3)CC2)c1`, 754 s.
The value for `COc1ccc(C)cc1NS(=O)(=O)c1cc2c3c(c1)CCC(=O)N3CCC2` was 973 s; that for `Cc1ccccc1NC(=O)NCC(c1cccnc1)c1cn(C)c2ccccc12` (centres undefined) was 680 s.
With `CN(CCNC(=O)c1ccc(-c2ccnc(N3CCCC3)n2)cc1)C1CCCCC1`, the RP-LC retention time was found to be 611 s.
The molecule `O=C(NCc1csc(C2CCN(C(=O)c3ccc(Cl)cc3)CC2)n1)C1CC1` came in with an RP-LC retention time of 725 s.
For the molecule `CCc1noc(NC(C)=O)c1-c1ccc(C)c(S(=O)(=O)N2CCCC2)c1`, the RP-LC retention time turned out to be 801 s.
Molecule `CC(=O)Nc1ccc(C2(C(=O)NCc3cccs3)CCC2)cc1` yielded an RP-LC retention time of 710 s.
In turn, `O=C(NCCCN1CCCC1=O)c1cccc2c1CCN2C(=O)Nc1ccc(F)cc1` displayed an RP-LC retention time of 680 s.
The value for `CN1C(=O)N(C)C2(CCN(C(=O)c3ccco3)CC2)C1=O` was 597 s.
The result for `Cc1ccc(N2CCC(NC(=O)Nc3cc(F)cc(F)c3)C2=O)cc1C` (centres undefined) reads 903 s; that for `CCc1nc(-c2csc(S(=O)(=O)N3CCCC(C(=O)Nc4ccc(F)cc4C)C3)c2)no1` (centres undefined), 1020 s.
`CCCn1ccc2sc(C)c(C(=O)NCc3ccccc3OC)c2c1=O` came in with an RP-LC retention time of 896 s.
As for `CCc1nc(N)n(CC(=O)Nc2ccc(F)cc2)c(=O)c1C`, the RP-LC retention time is 634 s.
As for `CN(C)S(=O)(=O)c1ccc(C(=O)N2CCC3(CC2)OCCS3)cc1`, the RP-LC retention time stood at 724 s.
The result for `O=C(CSc1ccc(N2CCCC(C(=O)NC3CC3)C2)nn1)Nc1c(F)cccc1F` (centres undefined) reads 617 s; that for `CCOc1nc2ccccc2nc1N1CCCC(C(=O)NC2CCCCCC2)C1` (centres undefined), 1250 s; that for `COc1ccc(-c2nnc(-c3ccccc3Cl)o2)cc1S(=O)(=O)N1CCCC1`, 969 s.
Turning to `CC(C)Oc1ccc(CNC(=O)c2sc3ncccc3c2-n2cccc2)cc1`, the RP-LC retention time was found to be 1110 s.
